Where a name gives a salt, the structure may show the parent alone. Read-outs that look alike come from different tables or passages of the source.
Legend:
[1] = target: NR1010/NR2A (Rattus norvegicus, UniProt P35439+Q00959); set-up: agonist nHill / agonist Emax: dose or concentration left out as unconfirmed; settings: for agonist Emax / agonist nHill: NR1010/NR2A
[2] = target: NR1101/NR2A (Rattus norvegicus, UniProt P35439+Q00959); set-up: agonist Emax: dose or concentration left out as unconfirmed; settings: for agonist Emax / agonist nHill: NR1101/NR2A
[3] = target: NR1/NR2A (NR1100) (Rattus norvegicus, UniProt P35439+Q00959)
Excerpt: (§4) Plasmids containing the NR1100 (NR1G) and NR2A cDNA inserts were kindly provided by Dr. Nakanishi (Kyoto University Faculty of Medicine, Kyoto, Japan). Plasmids containing the NR2B, NR2C and NR2D cDNA inserts were kindly provided by Dr. P. Seeburg (Heidelberg University, Heidelberg, Germany). Plasmids were linearized with appropriate restriction enzyme prior to in vitro transcription using the Message Machine kit (Ambion, Inc., Austin, Tex.).
(§5) Female, oocyte-positive Xenopus laevis frogs were purchased from Xenopus I (Dexter, Mich.). […] Oocytes were injected with 50 nL of RNA solutions using an electronic microinjector (Drummond Inc., Broomall, Pa.). […] The injected oocytes were used for experiments following 1-5 days of incubation in Barth's solution at 18-20° C.
(§6) The microelectrodes were fabricated from borosilicate glass capillaries with a programmed puller (Sutter Instrument Co., Calif.). Microelectrode resistance was 1-3 MΩ_when filled with 3 M KCl.
(§7) Except where otherwise stated, oocytes were clamped at a holding potential of −70 mV during data acquisition. The membrane current was filtered at 500 Hz and sampled at 100 Hz. Drugs were applied using a gravity-driven external perfusion system. The working volume of the recording chamber was 30 μl and the rate of the perfusion was 50 μl/sec. The drug application lasted 10 sec and was followed by 60 s wash. Data acquisition and external perfusion were controlled using custom-written software implemented in the SuperScope II development environment (GW Instruments, Mass.). All experiments were performed at room temperature of 22-24° C. Peak or steady-state current measurements were normalized and expressed as a fraction of the peak or steady-state control current measurements, which were performed before and after application of every single concentration of agonists or steroids.
(§8) Concentration-response data were analyzed by nonlinear regress ion using the logistic equation Response=Emax/(1+(EC50/c)^nH), where c is concentration, Emaxis the maximum response, nHis the Hill coefficient. The data are presented as mean±SEM. EC50values are averaged as logarithms (De Lean et al., Am. J. Physiol. 235: E97-E102 (1978))±the SEM of the log EC50. […] The pooled data were simultaneously fitted to the logistic equation, either with Emax and EC50 constrained to be identical in the presence and absence of PS, or allowing one or both to vary independently. […] This was regarded as indicating a significant treatment effect of PS, but the change in EC50and Emaxwas not considered significant. […] No attempt was made to test the generally small changes in nHfor statistical significance.

[4] = target: NR1/NR2B (NR1100) (Rattus norvegicus, UniProt P35439+Q00960)
NR1/NR2B (NR1100), sequence (Q00960 27-1482, other chains not shown): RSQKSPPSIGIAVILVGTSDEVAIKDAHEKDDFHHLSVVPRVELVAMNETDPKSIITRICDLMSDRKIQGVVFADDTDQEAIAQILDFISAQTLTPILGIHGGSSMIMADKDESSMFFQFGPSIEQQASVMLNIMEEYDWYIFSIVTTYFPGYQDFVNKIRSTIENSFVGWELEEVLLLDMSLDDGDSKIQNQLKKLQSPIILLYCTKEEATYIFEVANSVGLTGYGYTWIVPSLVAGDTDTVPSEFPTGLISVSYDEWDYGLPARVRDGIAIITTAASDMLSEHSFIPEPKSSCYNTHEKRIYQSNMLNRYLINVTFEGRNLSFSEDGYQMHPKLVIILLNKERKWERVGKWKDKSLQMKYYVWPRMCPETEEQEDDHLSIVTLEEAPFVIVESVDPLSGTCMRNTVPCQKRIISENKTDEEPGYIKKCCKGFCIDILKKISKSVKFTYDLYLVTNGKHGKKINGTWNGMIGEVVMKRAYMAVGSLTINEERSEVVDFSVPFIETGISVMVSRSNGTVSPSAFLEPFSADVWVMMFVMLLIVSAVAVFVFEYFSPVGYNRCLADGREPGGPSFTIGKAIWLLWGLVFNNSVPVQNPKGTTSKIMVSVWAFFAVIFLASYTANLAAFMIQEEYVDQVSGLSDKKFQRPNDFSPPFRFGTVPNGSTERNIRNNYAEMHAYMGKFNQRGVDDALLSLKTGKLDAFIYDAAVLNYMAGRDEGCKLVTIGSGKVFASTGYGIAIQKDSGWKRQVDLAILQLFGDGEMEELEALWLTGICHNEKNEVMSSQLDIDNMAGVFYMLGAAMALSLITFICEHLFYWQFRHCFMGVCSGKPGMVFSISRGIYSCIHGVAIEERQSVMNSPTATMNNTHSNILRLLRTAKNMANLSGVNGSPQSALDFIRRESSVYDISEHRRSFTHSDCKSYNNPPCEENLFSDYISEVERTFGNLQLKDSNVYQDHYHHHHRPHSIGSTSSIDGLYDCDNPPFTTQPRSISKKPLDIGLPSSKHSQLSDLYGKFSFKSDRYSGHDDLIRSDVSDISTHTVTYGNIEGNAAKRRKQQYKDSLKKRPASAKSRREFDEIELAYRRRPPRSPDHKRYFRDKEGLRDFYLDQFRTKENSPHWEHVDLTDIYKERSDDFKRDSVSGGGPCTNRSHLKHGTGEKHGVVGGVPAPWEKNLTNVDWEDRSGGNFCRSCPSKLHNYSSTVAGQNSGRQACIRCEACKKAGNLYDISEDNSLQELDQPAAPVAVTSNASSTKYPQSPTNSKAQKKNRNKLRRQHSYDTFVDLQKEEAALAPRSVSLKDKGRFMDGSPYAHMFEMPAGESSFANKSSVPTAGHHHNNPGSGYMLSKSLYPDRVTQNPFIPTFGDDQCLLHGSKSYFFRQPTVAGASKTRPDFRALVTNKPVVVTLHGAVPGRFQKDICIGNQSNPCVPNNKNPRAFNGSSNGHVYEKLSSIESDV
Excerpt: as §4, §5, §6, §7, §8

[5] = target: Penta-Mutant/NR2A (Rattus norvegicus, UniProt P35439+Q00959, K193A/K202A/R187A/R233A/R252A); test: NMDA-induced currents, Xenopus oocytes, Example 5
Experimental: Plasmids were linearized with appropriate restriction enzyme prior to in vitro transcription using the Message Machine kit (Ambion, Inc., Austin, Tex.).
Female, oocyte positive Xenopus laevis frogs were purchased from Xenopus I (Dexter, Mich). […] Oocytes were injected with 50 nL of RNA solutions using an electronic microinjector (Drummond Inc., Broomall, Pa.). […] The injected oocytes were used for experiments following 1-5 days of incubation in Barth's solution at 18-20° C.
The microelectrodes were fabricated with a programmed puller (Sutter Instrument Co., Calif.) from borosilicate glass capillaries and were filled with 3 M KCl solution. The resistance of filled microelectrodes was in the range of 1-3 MΩ. […] If not mentioned otherwise, during data acquisition oocytes were clamped at a holding potential of −70 mV. The membrane current was filtered at 500 Hz and sampled at 100 Hz. Drugs were applied using a gravity driven external perfusion system. The working ,volume of the recording chamber was 30 μl and the rate of the perfusion was 50 μl/sec. The drug application lasted 10 sec and was followed by a 60 sec wash. The data acquisition and external perfusion control were done using the SuperScopeII software package (GW Instruments, Mass.). All experiments were performed at room temperature (22-24° C.). Peak or steady-state current measurements were normalized and expressed as a fraction of the peak or steady-state control current measurements, which were performed before and after application of every single consentration of agonist or steroid. […] The data are presented as mean±S.E.M. with number of experiments in parentheses.

[6] = target: NR1/NR2D (NR1100) (Rattus norvegicus, UniProt P35439+Q62645)
Excerpt: as §4, §5, §6, §7, §8

[7] = target: NR1001/NR2A (Rattus norvegicus, UniProt P35439+Q00959); set-up: agonist Emax: dose or concentration left out as unconfirmed; settings: for agonist Emax / agonist nHill: NR1001/NR2A
NR1001/NR2A, sequence (Q00959 23-1464, other chains not shown): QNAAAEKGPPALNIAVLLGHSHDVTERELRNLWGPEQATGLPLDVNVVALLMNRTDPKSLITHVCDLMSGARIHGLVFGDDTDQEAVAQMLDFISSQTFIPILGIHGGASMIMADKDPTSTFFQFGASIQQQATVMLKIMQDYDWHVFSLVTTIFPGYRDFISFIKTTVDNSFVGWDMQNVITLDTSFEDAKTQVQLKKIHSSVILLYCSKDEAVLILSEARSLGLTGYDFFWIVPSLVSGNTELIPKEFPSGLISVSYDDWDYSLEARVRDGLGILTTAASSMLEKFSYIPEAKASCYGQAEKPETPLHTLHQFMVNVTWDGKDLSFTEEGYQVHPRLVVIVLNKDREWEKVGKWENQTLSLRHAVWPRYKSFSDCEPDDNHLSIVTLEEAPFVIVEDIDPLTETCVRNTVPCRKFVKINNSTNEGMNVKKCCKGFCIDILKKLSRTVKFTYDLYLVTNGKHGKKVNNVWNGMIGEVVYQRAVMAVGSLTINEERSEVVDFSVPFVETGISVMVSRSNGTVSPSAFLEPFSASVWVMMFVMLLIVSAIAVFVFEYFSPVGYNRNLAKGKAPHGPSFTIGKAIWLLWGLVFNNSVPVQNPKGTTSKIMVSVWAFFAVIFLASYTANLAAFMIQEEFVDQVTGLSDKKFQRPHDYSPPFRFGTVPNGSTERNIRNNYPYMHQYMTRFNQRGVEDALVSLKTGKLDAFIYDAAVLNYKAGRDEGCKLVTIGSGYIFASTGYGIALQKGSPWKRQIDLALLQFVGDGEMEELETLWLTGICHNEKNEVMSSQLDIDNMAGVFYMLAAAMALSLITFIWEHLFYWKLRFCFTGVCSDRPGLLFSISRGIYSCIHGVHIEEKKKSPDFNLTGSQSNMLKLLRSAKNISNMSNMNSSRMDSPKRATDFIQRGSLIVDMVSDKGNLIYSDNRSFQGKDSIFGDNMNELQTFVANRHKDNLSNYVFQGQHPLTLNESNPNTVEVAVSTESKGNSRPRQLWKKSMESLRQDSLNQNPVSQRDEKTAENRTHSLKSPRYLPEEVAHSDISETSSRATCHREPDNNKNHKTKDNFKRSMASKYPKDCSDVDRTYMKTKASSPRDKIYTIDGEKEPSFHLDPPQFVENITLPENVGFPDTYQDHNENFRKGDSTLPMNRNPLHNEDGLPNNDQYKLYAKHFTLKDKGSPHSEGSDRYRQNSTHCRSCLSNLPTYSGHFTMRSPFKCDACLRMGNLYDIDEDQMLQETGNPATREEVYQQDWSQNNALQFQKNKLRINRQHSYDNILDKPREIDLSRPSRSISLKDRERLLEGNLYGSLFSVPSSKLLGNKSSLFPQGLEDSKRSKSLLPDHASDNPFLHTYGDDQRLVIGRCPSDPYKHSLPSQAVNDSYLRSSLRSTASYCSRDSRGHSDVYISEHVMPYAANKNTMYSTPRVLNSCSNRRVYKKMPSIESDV

[8] = target: T1, NR1111/NR2A (Rattus norvegicus, UniProt P35439+Q00959); set-up: agonist Emax: dose or concentration left out as unconfirmed
[9] = target: T1, NR1111/NR2A; test: NMDA-induced currents of NR1 splice variants, Xenopus oocytes, Example 4; format: cell-based; set-up: expressed in transfected cells; host or cells: Xenopus oocytes injected with NR1111 and NR2A mRNA; settings: for NMDA nH / EC50: NR1111/2A; for EC50: read-out: NMDA EC50
Experimental: (§1) Overnight cultures (500 ml) of transformed bacterial cells were prepared in order to grow sufficient quantities for maxiprep isolation of the plasmid CDNA. Maxipreps were done using a Sorvall RC-5B ultracentrifuge, Qiagen columns and cDNA was quantitated with spectrophotometry (OD260 and OD260/ OD280 ratio). The resulting plasmid cDNA was linearized by digestion with an appropriate restriction enzyme that cleaves distal to the cDNA insert (XhoI for NR2A or NotI for NR1100, NR1000, NR1111, NR1011, NR1101, NR1001). […] The samples were stored at −20° C. until use.
(§2) In vitro transcription was performed using the Ambion mMessage mMachine kit with T7 (NR1100, NR1000, NR1111, NR1011, NR1101, NR1001) RNA polymerase. The reaction was assembled on ice and allowed to incubate at 37° C. for 1-2 hr. The resulting mRNA was precipitated (reaction termination) using lithium chloride/5 mM EDTA solution and dissolved in RNase-free H2O. The concentration (OD260) and OD260/OD280 ratio (should be more than 1.5) was determined by spectrophotometer. The yield of mRNA was generally 15-30 μg. mRNA was stored at −80° C. until use.
(§3) Intracellular recording microelectrodes were fabricated from 100 μl borosilicate glass disposable micropipettes using a 2-step protocol on a standard horizontal Flaming-Brown micropipette puller.

[10] = target: NR1/NR2C (NR1100) (Rattus norvegicus, UniProt P35439+Q00961); settings: NR1/NR2C
Excerpt: as §4, §5, §6, §7, §8

[11] = target: NR1100/NR2A (Rattus norvegicus, UniProt P35439+Q00959); set-up: agonist nHill / agonist Emax: dose or concentration left out as unconfirmed
[12] = target: NR1011/NR2A (Rattus norvegicus, UniProt P35439+Q00959); test: NMDA-induced currents of NR1 splice variants, Xenopus oocytes, Example 4; format: cell-based; set-up: expressed in transfected cells; host or cells: Xenopus oocytes injected with NR1011 and NR2A mRNA; settings: for NMDA nH / EC50: NR1011/2A; for EC50: read-out: NMDA EC50
NR1011/NR2A, sequence (Q00959 23-1464, other chains not shown): as above
Experimental: as §1, §2, §3

[13] = pH 7.5, read-out: percentage inhibition of the maximum NMDA response
[14] = read-out: agonist EC50, +100 μM PS

CC(=O)[C@H]1CC[C@H]2[C@@H]3CC[C@@H]4C[C@H](OS(=O)(=O)O)CC[C@]4(C)[C@H]3CC[C@]12C [3α5βS, 3α5β-pregnanolone sulfate]
3α5βS Emax ([1]; splice variant 010 /NR2A): −0.85 ± 0.02
3α5βS nHill ([1]; splice variant 010 /NR2A): 1.04 ± 0.06
3α5βS Emax ([2]; splice variant 101 /NR2A): −0.90 ± 0.07
3α5βS nHill ([2]; splice variant 101 /NR2A): 1.05 ± 0.25
3α5βS nH [3]: 1.39 ± 0.07
3α5βS nH [4]: 1.06 ± 0.04
percent decrease in maximum inward current ([5]; Penta-Mutant/NR2A, 100 uM steroid, 300 uM NMDA, 50 uM Glycine): 42.79±2.29%
3α5βS nH [6]: 1.14 ± 0.16
3α5βS Emax ([7]; splice variant 001 /NR2A): −0.89 ± 0.05
3α5βS nHill ([7]; splice variant 001 /NR2A): 0.95 ± 0.11
maximum extent of inhibition by 3α5βS ([8]; NR1111/NR2A): 75±7%
3α5βS Emax ([8]; splice variant 111 /NR2A): −0.75 ± 0.07
3α5βS nHill ([8]; splice variant 111 /NR2A): 1.09 ± 0.9
inhibition at 100 µM [9, 13]: 59%
3α5βS nH [10]: 1.34 ± 0.04
maximum extent of inhibition by 3α5βS ([11]; NR1100/NR2A): 99±3%
3α5βS Emax ([11]; splice variant 100 /NR2A): −0.99 ± 0.03
3α5βS nHill ([11]; splice variant 100 /NR2A): 0.83 ± 0.02
inhibition at 100 µM [12, 13]: 56%

CN[C@H](CC(=O)O)C(=O)O [NMDA, N-methyl-D-aspartate]
agonist Emax ([1]; absence of PS): 1.18 ± 0.03
agonist nHill ([1]; absence of PS): 1.19 ± 0.06
agonist Emax ([1]; presence of PS): (1.53 ± 0.08)
agonist nHill ([1]; presence of PS): 1.13 ± 0.09
agonist Emax ([2]; absence of PS): 1.33 ± 0.07
agonist nHill ([2]; absence of PS): 1.31 ± 0.05
agonist nHill ([2]; presence of 100 mM PS): 1.15 ± 0.12
agonist Emax ([2]; presence of PS): (1.78 ± 0.06)
agonist Emax ([3]; +100 μM PS): 1.60
agonist nH ([3]; +100 μM PS): 1.20 ± 0.06
agonist nH ([3]; no PS): 1.13 ± 0.04
agonist Emax ([3]; no PS, normalized to 200 μM NMDA plus 10 μM glycine): 1.36 ± 0.04
EC50 [3, 14]: 39 µM
EC50 ([3]; read-out: agonist EC50, no PS): 73 µM
agonist Emax ([4]; +100 μM PS): 1.47
agonist nH ([4]; +100 μM PS): 1.32 ± 0.11
agonist Emax ([4]; no PS): 1.00 ± 0.02
agonist nH ([4]; no PS): 1.28 ± 0.08
EC50 [4, 14]: 12 µM
EC50 ([5]; read-out: NMDA EC50, Penta-mutant/NR2A): 55 ± 3.4 µM
agonist Emax ([6]; +100 μM PS): 0.71
agonist nH ([6]; +100 μM PS): 1.17 ± 0.01
agonist Emax ([6]; no PS): 1.02 ± 0.01
agonist nH ([6]; no PS): 1.26 ± 0.09
EC50 ([6]; read-out: agonist EC50, +100 μM PS, unit cell empty): 6.2 µM
EC50 ([6]; read-out: agonist EC50, no PS): 8 µM
agonist Emax ([7]; absence of PS): 1.27 ± 0.04
agonist nHill ([7]; absence of PS): 1.46 ± 0.07
agonist nHill ([7]; presence of 100 mM PS): 1.21 ± 0.15
agonist Emax ([7]; presence of PS): (2.15 ± 0.17)
agonist Emax ([8]; NR1111/NR2A, absence of PS): 1.34 ± 0.09
agonist nHill ([8]; NR1111/NR2A, absence of PS): 1.49 ± 0.02
agonist nHill ([8]; NR1111/NR2A, presence of 100 mM PS): 1.33 ± 0.22
agonist Emax ([8]; NR1111/NR2A, presence of PS): (2.27 ± 0.07)
NMDA nH ([9]; pH 7.5, +100 μM 3α5βS): 1.50
NMDA nH ([9]; pH 7.5, +100 μM PS): 2.02
NMDA nH ([9]; pH 7.5, control): 1.67
NMDA nH ([9]; pH 8.5, +100 μM PS): 1.82
NMDA nH ([9]; pH 8.5, control): 1.93
EC50 ([9]; pH 7.5, +100 μM 3α5βS): 158 µM
EC50 ([9]; pH 7.5, +100 μM PS): 89 µM
EC50 ([9]; pH 7.5, control, 10 μM glycine): 103 µM
EC50 ([9]; pH 8.5, +100 μM PS): 94 µM
EC50 ([9]; pH 8.5, control): 110 µM
agonist Emax ([10]; +100 μM PS): 0.69
agonist nH ([10]; +100 μM PS): 1.33 ± 0.03
agonist Emax ([10]; no PS): 1.05 ± 0.01
agonist nH ([10]; no PS): 1.18 ± 0.02
EC50 [10, 14]: 15 µM
agonist Emax ([11]; NR1100/NR2A, absence of PS): 1.36 ± 0.04
agonist nHill ([11]; NR1100/NR2A, absence of PS): 1.13 ± 0.04
agonist Emax ([11]; NR1100/NR2A, presence): (1.60 ± 0.07
agonist nHill ([11]; NR1100/NR2A, presence): 1.20 ± 0.06
NMDA nH ([12]; pH 7.5, +100 μM 3α5βS): 1.35
NMDA nH ([12]; pH 7.5, +100 μM PS): 1.24
NMDA nH ([12]; pH 7.5, control): 1.47
NMDA nH ([12]; pH 8.5, +100 μM PS): 1.44
NMDA nH ([12]; pH 8.5, control): 1.62
EC50 ([12]; pH 7.5, +100 μM 3α5βS): 120 µM
EC50 ([12]; pH 7.5, +100 μM PS): 67 µM
EC50 ([12]; pH 7.5, control, 10 μM glycine): 71 µM
EC50 ([12]; pH 8.5, +100 μM PS): 58 µM
EC50 ([12]; pH 8.5, control): 94 µM

Reference: patent US6623933B1 (priority 1999, dated 2003)
